Experimental data: PubChem BioAssay AID248 (DTP/NCI, 2004)
Several values for one entry are separate records, joined by “and”; a condition that tells them apart may be missing. Equal values may be shown once. Toxic doses and inconclusive results are not listed. Rule as the data show it: active = T/C of 150% or more; inactive = T/C below 125%.

Tested on: L1210 leukemia ip in BDF1 mice, survival T/C
Assay: NCI In Vivo Anticancer Drug Screen. Data for tumor model L1210 Leukemia (intraperitoneal) in B6D2F1 (BDF1) mice
Settings: endpoint: mean survival time, higher = longer survival
In short: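 Survival endpoint. Drug-treated group vs vehicle group, expressed as T divided by C. Tumor passaged by transplantation.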

[1] = dose: 100.0 mg/kg/injection, schedule: Q04DX003 (ip), vehicle: Klucel (hydroxypropylcellulose) (HPC)
[2] = dose: 200.0 mg/kg/injection, schedule: Q04DX003 (ip), vehicle: Klucel (hydroxypropylcellulose) (HPC)
[3] = dose: 400.0 mg/kg/injection, schedule: Q04DX003 (ip), vehicle: Klucel (hydroxypropylcellulose) (HPC)
[4] = dose: 100.0 mg/kg/injection, schedule: Q01DX009 (ip), vehicle: Klucel (hydroxypropylcellulose) (HPC)
[5] = dose: 200.0 mg/kg/injection, schedule: Q01DX009 (ip), vehicle: Klucel (hydroxypropylcellulose) (HPC)
[6] = dose: 400.0 mg/kg/injection, schedule: Q01DX009 (ip), vehicle: Klucel (hydroxypropylcellulose) (HPC)
[7] = dose: 100.0 mg/kg/injection, schedule: Q04DX003 (ip), vehicle: saline with Tween-80
[8] = dose: 200.0 mg/kg/injection, schedule: Q04DX003 (ip), vehicle: saline with Tween-80
[9] = dose: 400.0 mg/kg/injection, schedule: Q04DX003 (ip), vehicle: saline with Tween-80
[10] = dose: 100.0 mg/kg/injection, schedule: Q01DX001 (ip), vehicle: saline
[11] = dose: 200.0 mg/kg/injection, schedule: Q01DX001 (ip), vehicle: saline
[12] = dose: 400.0 mg/kg/injection, schedule: Q01DX001 (ip), vehicle: saline

Measured: T/C

CCCCCCCCCC[n+]1cccc(C#N)c1
inactive: dose: 5.0 mg/kg/injection, schedule: Q01DX009 (ip), vehicle: saline 109 % of control | dose: 10.0 mg/kg/injection, schedule: Q01DX001 (ip), vehicle: saline 100 % of control | dose: 10.0 mg/kg/injection, schedule: Q01DX009 (ip), vehicle: saline 98 % of control | dose: 10.0 mg/kg/injection, schedule: Q04DX003 (ip), vehicle: saline 98 % of control | dose: 20.0 mg/kg/injection, schedule: Q01DX001 (ip), vehicle: saline 95 % of control | dose: 20.0 mg/kg/injection, schedule: Q01DX009 (ip), vehicle: saline 93 % of control | dose: 20.0 mg/kg/injection, schedule: Q04DX003 (ip), vehicle: saline 93 % of control | dose: 40.0 mg/kg/injection, schedule: Q01DX001 (ip), vehicle: saline 93 % of control | dose: 40.0 mg/kg/injection, schedule: Q04DX003 (ip), vehicle: saline 94 % of control

CCOC(=O)c1cnc(SC)nc1NN=C(C)C
inactive: [1] 92 % of control | [2] 95 % of control | [3] 93 % of control

O=NN(Cc1cnc2[nH]c(=O)[nH]c(=O)c2n1)c1ccc(C(=O)NC(CCC(=O)O)C(=O)O)cc1 (stereo not drawn)
inactive: dose: 3.13 mg/kg/injection, schedule: Q01DX009 (ip), vehicle: water 100 % of control | dose: 6.25 mg/kg/injection, schedule: Q01DX009 (ip), vehicle: water 102 % of control | dose: 12.5 mg/kg/injection, schedule: Q01DX009 (ip), vehicle: water 88 % of control | dose: 25.0 mg/kg/injection, schedule: Q01DX009 (ip), vehicle: water 98 % of control | dose: 50.0 mg/kg/injection, schedule: Q01DX009 (ip), vehicle: water 93 % of control

O=[N+]([O-])c1ccc2c(c1)Cc1cc(Br)ccc1-2
inactive: [4] 106 % of control | [1] 92 % of control | [5] 95 % of control | [2] 91 % of control | [6] 98 % of control | [3] 102 % of control

CCCC(=O)N1CCCC1
inactive: dose: 100.0 mg/kg/injection, schedule: Q04DX002 (ip), vehicle: saline 107 % of control | dose: 200.0 mg/kg/injection, schedule: Q04DX002 (ip), vehicle: saline 103 % of control | dose: 400.0 mg/kg/injection, schedule: Q04DX002 (ip), vehicle: saline 111 % of control

O=C(Nc1ccc(Cl)cc1Cl)c1cc(Cl)cc(Cl)c1Br
inactive: [7] 101 % of control | [8] 92 % of control | [9] 92 % of control

CC(C)(C)C=O
inactive: dose: 100.0 mg/kg/injection, schedule: Q04DX003 (ip), vehicle: saline 102 % of control | dose: 200.0 mg/kg/injection, schedule: Q04DX003 (ip), vehicle: saline 96 % of control | dose: 400.0 mg/kg/injection, schedule: Q04DX003 (ip), vehicle: saline 100 % of control

CCCCCCCCCCCCCCCCOc1ccc(C(=O)CC(=O)OC)cc1
inactive: [4] 93 % of control | dose: 100.0 mg/kg/injection, schedule: Q04DX003 (ip), vehicle: other 94 % of control | [5] 92 % of control | dose: 200.0 mg/kg/injection, schedule: Q04DX003 (ip), vehicle: other 101 % of control | [6] 92 % of control | dose: 400.0 mg/kg/injection, schedule: Q04DX003 (ip), vehicle: other 94 % of control

O=C(Nc1ccc(Cl)c(Cl)c1)n1ncc2ccc([N+](=O)[O-])cc21
inactive: [10] 100 % of control | [11] 96 % of control | [12] 100 % of control

CN1CC(C)(C)C(=O)c2ccccc21
inactive: dose: 100.0 mg/kg/injection, schedule: Q04DX002 (ip), vehicle: other 95 % of control | dose: 200.0 mg/kg/injection, schedule: Q04DX002 (ip), vehicle: other 103 % of control | dose: 400.0 mg/kg/injection, schedule: Q04DX002 (ip), vehicle: other 103 % of control

CCSC1C(OC(C)=O)C(C(COC(C)=O)OC(C)=O)OC1n1cnc2c(Cl)nc(Cl)nc21 (stereo not drawn)
inactive: dose: 100.0 mg/kg/injection, schedule: Q01DX005 (ip), vehicle: saline 109 % of control | dose: 200.0 mg/kg/injection, schedule: Q01DX005 (ip), vehicle: saline 109 % of control

O=[N+]([O-])CC(C[N+](=O)[O-])C(F)(F)C(F)(F)C(F)(F)F
inactive: dose: 100.0 mg/kg/injection, schedule: Q01DX001 (ip), vehicle: other 101 % of control

O=[N+]([O-])c1cccc(Cl)c1F
inactive: dose: 100.0 mg/kg/injection, schedule: Q04DX002 (ip), vehicle: Klucel (hydroxypropylcellulose) (HPC) 101 % of control | dose: 200.0 mg/kg/injection, schedule: Q04DX002 (ip), vehicle: Klucel (hydroxypropylcellulose) (HPC) 96 % of control

Nc1ccc(/C=C\C(=O)NCc2cccnc2)cc1
inactive: dose: 25.0 mg/kg/injection, schedule: Q01DX009 (ip), vehicle: saline with Tween-80 109 % of control | dose: 50.0 mg/kg/injection, schedule: Q01DX009 (ip), vehicle: saline with Tween-80 102 % of control | dose: 100.0 mg/kg/injection, schedule: Q01DX009 (ip), vehicle: saline with Tween-80 93 % of control and 90 % of control

N/C(N=P(c1ccccc1)(c1ccccc1)c1ccccc1)=N\[N+](=O)[O-]
inactive: dose: 100.0 mg/kg/injection, schedule: Q04DX002 (ip), vehicle: gum acacia 101 % of control | dose: 200.0 mg/kg/injection, schedule: Q04DX002 (ip), vehicle: gum acacia 107 % of control | dose: 400.0 mg/kg/injection, schedule: Q04DX002 (ip), vehicle: gum acacia 101 % of control

Cc1nn(C)c(N)c1C#N
inactive: dose: 25.0 mg/kg/injection, schedule: Q01DX009 (ip), vehicle: saline 97 % of control | dose: 50.0 mg/kg/injection, schedule: Q01DX009 (ip), vehicle: saline 97 % of control | dose: 100.0 mg/kg/injection, schedule: Q01DX001 (ip), vehicle: Klucel (hydroxypropylcellulose) (HPC) 107 % of control | dose: 100.0 mg/kg/injection, schedule: Q01DX009 (ip), vehicle: saline 111 % of control | dose: 200.0 mg/kg/injection, schedule: Q01DX001 (ip), vehicle: Klucel (hydroxypropylcellulose) (HPC) 104 % of control | dose: 200.0 mg/kg/injection, schedule: Q01DX009 (ip), vehicle: saline 106 % of control | dose: 400.0 mg/kg/injection, schedule: Q01DX001 (ip), vehicle: Klucel (hydroxypropylcellulose) (HPC) 104 % of control | dose: 400.0 mg/kg/injection, schedule: Q01DX009 (ip), vehicle: saline 100 % of control

CCCCCCCCCCCCCCCCCC(=O)N/N=C\c1c(O)ccc2ccccc12
inactive: [4] 93 % of control and 90 % of control | [5] 88 % of control | [6] 89 % of control

Cc1ccc(C2OC23CC(C)(C)c2ccccc2C3=O)cc1 (stereo not drawn)
inactive: [7] 93 % of control | [8] 96 % of control | [9] 93 % of control

CSc1ncnc2c1c(Br)cn2C1OC(CO)C(O)C1O (stereo not drawn)
inactive: [10] 100 % of control | [11] 108 % of control | [12] 114 % of control

Cc1cccc(C(=O)OCCBr)c1
inactive: dose: 100.0 mg/kg/injection, schedule: Q04DX003 (ip), vehicle: saline sonified 98 % of control | dose: 200.0 mg/kg/injection, schedule: Q04DX003 (ip), vehicle: saline sonified 104 % of control | dose: 400.0 mg/kg/injection, schedule: Q04DX003 (ip), vehicle: saline sonified 106 % of control

O=C1c2ccccc2C(=O)c2c1ccc(C1C(=O)c3ccccc3C1=O)c2-c1c(C2C(=O)c3ccccc3C2=O)ccc2c1C(=O)c1ccccc1C2=O
inactive: [10] 95 % of control | [11] 95 % of control | [12] 97 % of control
